Like-named read-outs stand apart in the source and are kept apart here.
Experiments:
Format in all cases: binding
[1] = target: kinases (KINOMEscan panel) (Homo sapiens, UniProt Q8IVW4); details: kinase CDKL3; NEW KINOMEscan
[2] = target: T1, kinases (KINOMEscan panel) (Homo sapiens, UniProt Q8TF76); details: HASPIN; NEW KINOMEscan
T1 sequence (Q8TF76 1-798): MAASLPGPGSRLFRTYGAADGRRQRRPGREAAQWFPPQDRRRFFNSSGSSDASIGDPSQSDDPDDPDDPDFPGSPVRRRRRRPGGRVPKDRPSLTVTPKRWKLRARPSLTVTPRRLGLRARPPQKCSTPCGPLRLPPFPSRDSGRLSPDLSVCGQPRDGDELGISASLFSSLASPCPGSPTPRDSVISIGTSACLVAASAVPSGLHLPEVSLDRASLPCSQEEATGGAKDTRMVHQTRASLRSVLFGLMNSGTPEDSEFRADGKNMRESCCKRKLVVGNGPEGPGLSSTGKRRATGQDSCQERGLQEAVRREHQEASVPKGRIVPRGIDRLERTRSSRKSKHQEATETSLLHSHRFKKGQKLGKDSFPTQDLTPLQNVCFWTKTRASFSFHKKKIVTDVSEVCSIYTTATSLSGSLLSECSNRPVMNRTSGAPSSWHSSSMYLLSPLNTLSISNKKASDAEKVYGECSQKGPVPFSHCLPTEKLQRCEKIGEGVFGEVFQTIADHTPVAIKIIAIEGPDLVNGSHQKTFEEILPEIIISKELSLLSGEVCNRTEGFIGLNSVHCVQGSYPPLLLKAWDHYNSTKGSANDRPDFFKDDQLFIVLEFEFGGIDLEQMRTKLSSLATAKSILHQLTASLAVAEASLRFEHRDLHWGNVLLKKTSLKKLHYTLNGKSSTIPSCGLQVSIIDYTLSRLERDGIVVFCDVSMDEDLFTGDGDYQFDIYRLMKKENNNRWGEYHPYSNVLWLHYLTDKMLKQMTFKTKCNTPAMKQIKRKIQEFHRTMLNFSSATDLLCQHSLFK

[3] = target: kinases (KINOMEscan panel) (Homo sapiens, UniProt P22694); details: PRKACB; NEW KINOMEscan
[4] = target: T2, kinases (KINOMEscan panel) (Homo sapiens, UniProt P15735); details: kinase PHKG2; NEW KINOMEscan
T2 sequence (P15735 1-406): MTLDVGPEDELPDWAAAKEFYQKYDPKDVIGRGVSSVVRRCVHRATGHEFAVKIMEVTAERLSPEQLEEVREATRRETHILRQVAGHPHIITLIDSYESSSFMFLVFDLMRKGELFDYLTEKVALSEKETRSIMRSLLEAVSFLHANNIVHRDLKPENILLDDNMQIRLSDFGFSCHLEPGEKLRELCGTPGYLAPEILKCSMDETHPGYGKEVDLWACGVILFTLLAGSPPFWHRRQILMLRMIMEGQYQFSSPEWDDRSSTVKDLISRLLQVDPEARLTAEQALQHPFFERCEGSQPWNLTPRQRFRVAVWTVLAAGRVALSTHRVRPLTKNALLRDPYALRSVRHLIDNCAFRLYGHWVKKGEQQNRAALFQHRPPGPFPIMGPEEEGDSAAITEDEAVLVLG

[5] = target: kinases (KINOMEscan panel) (Homo sapiens, UniProt P42336, I800L); details: kinase PIK3CA(I800L); NEW KINOMEscan
Chain of kinases (KINOMEscan panel) (Homo sapiens, UniProt P42336, I800L) (P42336 whole entry I800L): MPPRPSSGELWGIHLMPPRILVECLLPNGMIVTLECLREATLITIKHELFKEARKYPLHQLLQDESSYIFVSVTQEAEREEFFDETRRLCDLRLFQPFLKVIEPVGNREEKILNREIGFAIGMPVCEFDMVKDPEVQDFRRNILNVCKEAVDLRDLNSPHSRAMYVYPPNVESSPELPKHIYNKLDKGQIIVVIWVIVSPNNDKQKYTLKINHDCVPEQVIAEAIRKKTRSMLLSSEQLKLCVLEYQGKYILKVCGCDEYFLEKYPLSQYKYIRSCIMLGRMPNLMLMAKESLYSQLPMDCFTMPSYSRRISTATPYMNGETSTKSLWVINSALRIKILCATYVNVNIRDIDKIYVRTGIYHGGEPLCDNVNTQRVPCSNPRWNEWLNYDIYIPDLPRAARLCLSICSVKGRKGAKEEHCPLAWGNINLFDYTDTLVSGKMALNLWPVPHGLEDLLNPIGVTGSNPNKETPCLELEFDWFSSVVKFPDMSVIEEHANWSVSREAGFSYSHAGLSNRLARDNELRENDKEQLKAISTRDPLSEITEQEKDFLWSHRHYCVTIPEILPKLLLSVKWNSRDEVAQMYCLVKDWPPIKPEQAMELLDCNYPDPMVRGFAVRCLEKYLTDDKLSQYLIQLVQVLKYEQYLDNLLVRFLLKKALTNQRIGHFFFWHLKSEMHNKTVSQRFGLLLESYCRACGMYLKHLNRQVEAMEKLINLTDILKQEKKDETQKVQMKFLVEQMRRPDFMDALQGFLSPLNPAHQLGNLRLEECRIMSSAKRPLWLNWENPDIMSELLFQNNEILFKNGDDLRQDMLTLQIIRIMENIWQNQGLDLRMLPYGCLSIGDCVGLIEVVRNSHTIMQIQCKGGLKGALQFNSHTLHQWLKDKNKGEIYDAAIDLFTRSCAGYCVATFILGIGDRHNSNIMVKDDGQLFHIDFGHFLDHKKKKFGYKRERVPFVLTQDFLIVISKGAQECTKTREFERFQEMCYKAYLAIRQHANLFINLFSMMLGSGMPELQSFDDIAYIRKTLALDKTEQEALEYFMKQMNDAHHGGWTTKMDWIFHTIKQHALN

[6] = target: kinases (KINOMEscan panel) (Homo sapiens, UniProt Q9HBH9); details: MKNK2; NEW KINOMEscan
Chain of kinases (KINOMEscan panel) (Homo sapiens, UniProt Q9HBH9) (Q9HBH9 whole entry): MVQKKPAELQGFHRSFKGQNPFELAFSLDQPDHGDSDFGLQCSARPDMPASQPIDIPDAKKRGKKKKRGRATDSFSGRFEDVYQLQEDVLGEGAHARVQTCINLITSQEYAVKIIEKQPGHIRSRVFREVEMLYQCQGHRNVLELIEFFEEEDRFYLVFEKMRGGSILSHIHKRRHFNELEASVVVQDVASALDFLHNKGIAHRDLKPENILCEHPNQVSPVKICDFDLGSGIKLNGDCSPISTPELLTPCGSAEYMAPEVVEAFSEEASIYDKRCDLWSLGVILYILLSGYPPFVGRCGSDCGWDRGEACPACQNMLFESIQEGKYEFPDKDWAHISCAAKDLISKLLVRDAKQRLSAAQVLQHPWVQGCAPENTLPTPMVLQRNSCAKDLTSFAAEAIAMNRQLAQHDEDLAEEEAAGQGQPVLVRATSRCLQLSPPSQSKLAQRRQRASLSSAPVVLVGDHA

[7] = target: kinases (KINOMEscan panel) (Homo sapiens, UniProt P08581, Y1235D); details: kinase MET(Y1235D); NEW KINOMEscan
Chain of kinases (KINOMEscan panel) (Homo sapiens, UniProt P08581, Y1235D) (P08581 25-1390 Y1235D): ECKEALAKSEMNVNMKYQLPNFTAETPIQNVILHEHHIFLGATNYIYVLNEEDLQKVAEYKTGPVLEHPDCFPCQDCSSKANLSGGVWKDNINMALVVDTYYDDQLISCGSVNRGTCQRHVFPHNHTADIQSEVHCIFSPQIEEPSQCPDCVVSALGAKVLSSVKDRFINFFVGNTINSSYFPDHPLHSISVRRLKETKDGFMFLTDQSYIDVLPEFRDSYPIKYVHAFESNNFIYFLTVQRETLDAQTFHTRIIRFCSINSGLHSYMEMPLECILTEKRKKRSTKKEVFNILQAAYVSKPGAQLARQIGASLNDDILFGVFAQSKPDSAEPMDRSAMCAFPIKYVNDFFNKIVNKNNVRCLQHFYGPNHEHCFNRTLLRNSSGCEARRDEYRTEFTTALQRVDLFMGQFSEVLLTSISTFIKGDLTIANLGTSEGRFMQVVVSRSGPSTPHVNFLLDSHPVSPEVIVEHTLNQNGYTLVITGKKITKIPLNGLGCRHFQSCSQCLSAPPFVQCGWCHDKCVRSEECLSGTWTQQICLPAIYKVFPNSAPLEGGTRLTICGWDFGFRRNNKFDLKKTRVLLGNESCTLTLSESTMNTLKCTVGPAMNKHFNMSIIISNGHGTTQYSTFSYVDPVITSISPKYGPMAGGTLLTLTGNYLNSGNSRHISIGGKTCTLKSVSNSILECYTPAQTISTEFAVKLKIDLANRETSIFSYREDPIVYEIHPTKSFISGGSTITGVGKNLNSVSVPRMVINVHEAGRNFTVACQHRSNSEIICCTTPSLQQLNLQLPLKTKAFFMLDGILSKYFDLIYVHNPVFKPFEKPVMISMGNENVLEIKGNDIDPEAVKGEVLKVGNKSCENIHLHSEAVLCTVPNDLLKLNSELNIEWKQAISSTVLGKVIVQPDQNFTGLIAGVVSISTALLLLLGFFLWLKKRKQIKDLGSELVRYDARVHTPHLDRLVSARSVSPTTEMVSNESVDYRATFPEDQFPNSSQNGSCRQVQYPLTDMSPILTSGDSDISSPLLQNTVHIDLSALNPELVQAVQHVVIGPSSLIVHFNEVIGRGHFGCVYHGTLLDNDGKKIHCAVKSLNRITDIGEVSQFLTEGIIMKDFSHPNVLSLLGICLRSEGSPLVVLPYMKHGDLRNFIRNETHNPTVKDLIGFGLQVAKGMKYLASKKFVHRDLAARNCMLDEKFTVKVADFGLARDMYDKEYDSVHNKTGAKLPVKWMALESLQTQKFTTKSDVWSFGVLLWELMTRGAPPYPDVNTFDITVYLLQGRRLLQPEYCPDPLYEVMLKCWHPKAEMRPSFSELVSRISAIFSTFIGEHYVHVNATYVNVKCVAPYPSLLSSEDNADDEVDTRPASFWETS

[8] = target: kinases (KINOMEscan panel) (Homo sapiens, UniProt O95819); details: MAP4K4; NEW KINOMEscan
Chain of kinases (KINOMEscan panel) (Homo sapiens, UniProt O95819) (O95819 whole entry): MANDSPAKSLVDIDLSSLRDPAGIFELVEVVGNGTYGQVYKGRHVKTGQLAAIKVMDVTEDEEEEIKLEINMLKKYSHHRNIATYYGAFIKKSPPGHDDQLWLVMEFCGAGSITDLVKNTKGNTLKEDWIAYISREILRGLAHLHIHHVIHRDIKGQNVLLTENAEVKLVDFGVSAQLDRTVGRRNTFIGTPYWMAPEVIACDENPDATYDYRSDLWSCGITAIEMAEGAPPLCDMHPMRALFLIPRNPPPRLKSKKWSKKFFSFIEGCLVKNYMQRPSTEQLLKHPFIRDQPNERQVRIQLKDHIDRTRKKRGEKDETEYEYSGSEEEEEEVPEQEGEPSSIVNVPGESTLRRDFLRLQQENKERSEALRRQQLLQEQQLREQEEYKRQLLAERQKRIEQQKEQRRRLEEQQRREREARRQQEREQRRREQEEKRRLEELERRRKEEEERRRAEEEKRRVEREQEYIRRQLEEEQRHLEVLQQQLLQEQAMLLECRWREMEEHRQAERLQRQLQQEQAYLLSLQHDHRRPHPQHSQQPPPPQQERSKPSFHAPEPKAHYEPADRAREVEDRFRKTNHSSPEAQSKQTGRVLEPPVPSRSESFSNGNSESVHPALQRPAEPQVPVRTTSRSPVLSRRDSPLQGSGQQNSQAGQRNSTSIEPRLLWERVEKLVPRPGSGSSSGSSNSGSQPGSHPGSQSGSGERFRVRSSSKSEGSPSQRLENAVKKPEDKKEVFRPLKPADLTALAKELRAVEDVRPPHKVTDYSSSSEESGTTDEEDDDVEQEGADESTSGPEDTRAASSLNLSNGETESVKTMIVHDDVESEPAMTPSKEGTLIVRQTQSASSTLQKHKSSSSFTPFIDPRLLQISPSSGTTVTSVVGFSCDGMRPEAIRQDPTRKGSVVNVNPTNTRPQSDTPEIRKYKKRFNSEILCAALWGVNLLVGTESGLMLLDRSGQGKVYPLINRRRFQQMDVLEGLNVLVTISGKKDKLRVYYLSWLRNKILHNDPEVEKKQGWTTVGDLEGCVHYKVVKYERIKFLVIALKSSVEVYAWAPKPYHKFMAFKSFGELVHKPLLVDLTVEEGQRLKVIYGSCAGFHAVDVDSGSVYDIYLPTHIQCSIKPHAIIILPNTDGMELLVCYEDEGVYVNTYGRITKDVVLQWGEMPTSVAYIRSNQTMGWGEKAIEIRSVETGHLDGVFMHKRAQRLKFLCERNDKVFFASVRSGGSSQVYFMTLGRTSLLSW

[9] = target: T3, kinases (KINOMEscan panel) (Homo sapiens, UniProt Q8IW41)
T3 sequence (Q8IW41 1-473): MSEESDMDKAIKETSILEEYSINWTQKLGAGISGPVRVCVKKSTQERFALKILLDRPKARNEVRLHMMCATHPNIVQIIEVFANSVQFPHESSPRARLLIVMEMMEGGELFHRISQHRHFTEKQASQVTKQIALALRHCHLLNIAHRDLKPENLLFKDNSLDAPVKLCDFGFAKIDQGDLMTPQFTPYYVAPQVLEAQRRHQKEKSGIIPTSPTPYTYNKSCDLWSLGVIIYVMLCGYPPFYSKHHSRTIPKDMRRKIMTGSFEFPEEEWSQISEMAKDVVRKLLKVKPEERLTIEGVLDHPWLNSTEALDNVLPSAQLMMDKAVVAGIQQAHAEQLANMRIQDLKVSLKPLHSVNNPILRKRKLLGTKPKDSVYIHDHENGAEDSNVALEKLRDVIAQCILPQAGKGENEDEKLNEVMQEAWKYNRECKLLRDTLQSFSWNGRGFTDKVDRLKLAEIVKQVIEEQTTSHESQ

[10] = target: kinases (KINOMEscan panel) (Homo sapiens, UniProt P00533, T790M); details: kinase EGFR(T790M); NEW KINOMEscan
[11] = target: kinases (KINOMEscan panel) (Homo sapiens, UniProt P00519, H396P); details: NEW KINOMEscan
[12] = target: T4, kinases (KINOMEscan panel) (Homo sapiens, UniProt O14965); details: NEW KINOMEscan
T4 sequence (O14965 1-403): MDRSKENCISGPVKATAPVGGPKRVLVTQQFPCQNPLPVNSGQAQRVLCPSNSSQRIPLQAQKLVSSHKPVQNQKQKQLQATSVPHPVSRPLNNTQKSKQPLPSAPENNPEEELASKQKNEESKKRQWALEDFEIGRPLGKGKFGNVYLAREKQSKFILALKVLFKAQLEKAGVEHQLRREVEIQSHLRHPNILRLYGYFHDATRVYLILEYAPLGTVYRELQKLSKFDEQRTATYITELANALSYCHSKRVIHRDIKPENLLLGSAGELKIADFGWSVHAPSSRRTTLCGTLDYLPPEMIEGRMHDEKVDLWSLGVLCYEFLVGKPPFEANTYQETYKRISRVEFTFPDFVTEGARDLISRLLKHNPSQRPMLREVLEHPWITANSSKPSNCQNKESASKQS

Chain of kinases (KINOMEscan panel) (Homo sapiens, UniProt Q8IVW4) (Q8IVW4 whole entry): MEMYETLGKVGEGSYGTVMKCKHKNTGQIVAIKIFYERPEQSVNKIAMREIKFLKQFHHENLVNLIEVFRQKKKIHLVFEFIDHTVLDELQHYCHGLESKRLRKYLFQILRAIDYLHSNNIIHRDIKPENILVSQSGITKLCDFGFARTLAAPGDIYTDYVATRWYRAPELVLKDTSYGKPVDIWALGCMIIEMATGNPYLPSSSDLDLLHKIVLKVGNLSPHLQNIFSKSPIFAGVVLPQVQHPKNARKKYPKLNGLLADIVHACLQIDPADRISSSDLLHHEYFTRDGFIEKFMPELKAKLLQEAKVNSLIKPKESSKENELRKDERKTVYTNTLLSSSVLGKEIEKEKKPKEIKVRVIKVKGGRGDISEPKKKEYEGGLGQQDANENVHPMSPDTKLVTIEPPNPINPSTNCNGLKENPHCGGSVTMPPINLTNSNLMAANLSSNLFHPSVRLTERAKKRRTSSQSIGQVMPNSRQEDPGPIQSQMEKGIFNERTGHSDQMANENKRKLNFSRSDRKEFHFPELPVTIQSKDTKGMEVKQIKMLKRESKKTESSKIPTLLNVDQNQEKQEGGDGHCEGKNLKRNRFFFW

Row | SMILES | KINOMEscan CDKL3 [1] | KINOMEscan HASPIN [2] | KINOMEscan PRKACB [3] | KINOMEscan PHKG2 [4] | KINOMEscan PIK3CA(I800L) [5] | KINOMEscan MKNK2 [6] | KINOMEscan MET(Y1235D) [7] | KINOMEscan MAP4K4 [8] | KINOMEscan MAPKAPK5 [9] | KINOMEscan EGFR(T790M) [10] | KINOMEscan ABL1(H396P)-nonphosphorylated [11] | KINOMEscan ABL1(H396P)-phosphorylated [11] | KINOMEscan AURKA [12] | KINOMEscan MAPKAPK5 ([9]; MAPKAPK5, NEW KINOMEscan)
1 | Cc1cccc(-c2nc(N(C)c3ccc4ncsc4c3)c3ccccc3n2)n1 [NK-161] | 0 | 7 | 6 | 0 | 0 | 0 | 1 | 0 | 0 | 0 | 0 | 0 | 22 | –
2 | Cc1cccc(-c2nc(Nc3ccc4nn(C)cc4c3)c3ccccc3n2)n1 [NK167] | 12 | 4 | 1 | 0 | 0 | 0 | 7 | 1 | – | 0 | 4 | 0 | 3 | 0

Reference: paper PMC9851200, “Multiparameter phenotypic screening for endogenous TFEB and TFE3 translocation identifies novel chemical series modulating lysosome function” (Autophagy, 2022)
